# Source: US9586961B2, “Homopiperazine derivatives as protein tyrosine kinase inhibitors and pharmaceutical use thereof” (LEO PHARMA A/S, priority 2010, dated 2017)
# Legend:
# Assay type in all cases: biochemical
# JAK3 = molecular target: T1, JAK3 (Homo sapiens, UniProt P52333); assay: JAK3 kinase assay (HTRF, inhibition of phosphorylation of a synthetic peptide); details: catalytic domain, His-tag; 2 μM ATP (Km); read-out: JAK3 kinase inhibitory activity (EC50)
# T1 construct: All four purified enzymes contain only the catalytic domain; His (N); purchased Carna Biosciences, Inc; host or cells: baculovirus expression system
# T1 sequence (P52333 822-1111 limits assumed): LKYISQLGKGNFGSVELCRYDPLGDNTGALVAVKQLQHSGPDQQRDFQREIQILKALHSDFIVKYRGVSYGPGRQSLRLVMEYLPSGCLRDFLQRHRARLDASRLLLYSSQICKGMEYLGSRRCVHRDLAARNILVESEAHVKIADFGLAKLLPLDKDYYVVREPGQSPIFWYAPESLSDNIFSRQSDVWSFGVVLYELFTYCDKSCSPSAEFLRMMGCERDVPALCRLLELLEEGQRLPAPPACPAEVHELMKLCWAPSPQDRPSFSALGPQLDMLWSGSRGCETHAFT
# Summary of the method: (§1)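 Baculovirus-expressed catalytic domains (GST-JAK1 aa 850-1154, GST-TYK2 aa 871-1187, His-JAK2, His-JAK3) phosphorylate 1 μM biotin-TK peptide 20-30 min at RT in 50 mM Hepes pH 7.0 with ATP at Km: JAK1 7 μM, JAK2 4 μM, JAK3 2 μM, TYK2 13 μM; 0.75% DMSO. Stopped with EDTA, HTRF read overnight.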
# JAK1 = molecular target: T2, JAK1 (Homo sapiens, UniProt P23458); assay: JAK1 kinase assay (HTRF, inhibition of phosphorylation of a synthetic peptide); details: catalytic domain aa 850-1154, GST-tag; 7 μM ATP (Km); read-out: JAK1 kinase inhibitory activity (EC50)
# T2 construct: JAK1 (aa 850-1154) and TYK2 (aa 871-1187) are expressed with an N-terminally fused GST-tag; GST (N); purchased Carna Biosciences, Inc; host or cells: baculovirus expression system
# T2 sequence (P23458 850-1154): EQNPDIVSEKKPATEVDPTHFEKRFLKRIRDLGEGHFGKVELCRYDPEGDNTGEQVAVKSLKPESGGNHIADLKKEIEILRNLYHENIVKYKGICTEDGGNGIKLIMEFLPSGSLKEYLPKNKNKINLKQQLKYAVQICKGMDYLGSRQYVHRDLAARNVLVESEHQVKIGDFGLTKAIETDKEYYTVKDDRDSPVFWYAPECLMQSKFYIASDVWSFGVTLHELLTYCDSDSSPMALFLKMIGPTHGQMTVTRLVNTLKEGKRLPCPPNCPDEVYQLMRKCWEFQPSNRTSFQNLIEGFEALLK
# Summary of the method: as §1
# JAK2 = molecular target: T3, JAK2 (Homo sapiens, UniProt O60674); assay: JAK2 kinase assay (HTRF, inhibition of phosphorylation of a synthetic peptide); details: catalytic domain, His-tag; 4 μM ATP (Km); read-out: JAK2 kinase inhibitory activity (EC50)
# T3 construct: All four purified enzymes contain only the catalytic domain; His (N); purchased Carna Biosciences, Inc; host or cells: baculovirus expression system
# T3 sequence (O60674 849-1124 limits assumed): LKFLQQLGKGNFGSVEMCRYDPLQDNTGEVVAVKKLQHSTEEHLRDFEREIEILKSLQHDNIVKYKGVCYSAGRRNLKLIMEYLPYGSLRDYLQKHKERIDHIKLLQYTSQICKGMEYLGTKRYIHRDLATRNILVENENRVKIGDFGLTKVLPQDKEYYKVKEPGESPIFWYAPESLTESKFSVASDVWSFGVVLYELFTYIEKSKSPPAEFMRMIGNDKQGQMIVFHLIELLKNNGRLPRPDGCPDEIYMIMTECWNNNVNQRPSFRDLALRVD
# Summary of the method: as §1
# TYK2 = molecular target: T4, TYK2 (Homo sapiens, UniProt P29597); assay: TYK2 kinase assay (HTRF, inhibition of phosphorylation of a synthetic peptide); details: catalytic domain aa 871-1187, GST-tag; 13 μM ATP (Km); read-out: TYK2 kinase inhibitory activity (EC50)
# T4 construct: JAK1 (aa 850-1154) and TYK2 (aa 871-1187) are expressed with an N-terminally fused GST-tag; GST (N); purchased Carna Biosciences, Inc; host or cells: baculovirus expression system
# T4 sequence (P29597 871-1187): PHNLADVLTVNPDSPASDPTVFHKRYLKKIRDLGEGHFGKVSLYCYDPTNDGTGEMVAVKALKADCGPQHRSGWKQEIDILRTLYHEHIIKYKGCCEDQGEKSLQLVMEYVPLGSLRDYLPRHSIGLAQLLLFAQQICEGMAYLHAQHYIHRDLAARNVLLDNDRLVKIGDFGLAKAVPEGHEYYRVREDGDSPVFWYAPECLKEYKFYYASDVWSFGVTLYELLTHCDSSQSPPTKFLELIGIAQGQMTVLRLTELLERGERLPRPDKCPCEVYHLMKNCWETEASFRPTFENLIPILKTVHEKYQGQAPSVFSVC
# Summary of the method: as §1
Structure (SMILES),EC50 (JAK3),EC50 (JAK1),EC50 (JAK2),EC50 (TYK2)
"Cc1ccc(S(=O)(=O)N2CCCN(c3ncnc4[nH]ccc34)CC23CC3)cc1 [Example 94, 4-[9-(p-tolylsulfonyl)-5,9-diazaspiro[2.6]nonan-5-yl]-7H-pyrrolo[2,3-d]pyrimidine]",> 1000 nM,> 1000 nM,> 1000 nM,> 1000 nM
"CN(CCC#N)S(=O)(=O)N1CCN(c2ncnc3[nH]ccc23)CC2(CC2)C1 [Example 103, N-(2-cyanoethyl)-N-methyl-5-(7H-pyrrolo[2,3-d]pyrimidin-4-yl)-5,8-diazaspiro[2.6]nonane-8-sulfonamide]",> 1000 nM,100 to 1000 nM,100 to 1000 nM,> 1000 nM
c1nc(N2CCNC3(CC2)CC3)c2cc[nH]c2n1 [Example 291],> 1000 nM,> 1000 nM,> 1000 nM,> 1000 nM
"O=C(Cc1ccc(F)cc1)N1CCN(c2ncnc3[nH]ccc23)CC2(CC2)C1 [Example 158, 2-(4-fluorophenyl)-1-[5-(7H-pyrrolo[2,3-d]pyrimidin-4-yl)-5,8-diazaspiro[2.6]nonan-8-yl]ethanone]",100 to 1000 nM,< 100 nM,< 100 nM,100 to 1000 nM
"N#Cc1ccc(C(=O)C(=O)N2CCN(c3ncnc4[nH]ccc34)CC3(CC3)C2)cc1 [Example 100, 4-[2-oxo-2-[5-(7H-pyrrolo[2,3-d]pyrimidin-4-yl)-5,8-diazaspiro[2.6]nonan-8-yl]acetyl]benzonitrile]",> 1000 nM,< 100 nM,< 100 nM,> 1000 nM
"N#Cc1ccc(C(=O)N2CCCN(c3ncnc4[nH]ccc34)CC23CC3)o1 [Example 258, 5-[5-(7H-pyrrolo[2,3-d]pyrimidin-4-yl)-5,9-diazaspiro[2.6]nonane-9-carbonyl]furan-2-carbonitrile]",100 to 1000 nM,< 100 nM,< 100 nM,100 to 1000 nM
"O=C(Cc1ccc(C(F)(F)F)cc1)N1CCN(c2ncnc3[nH]ccc23)CC2(CC2)C1 [Example 271, 1-[5-(7H-pyrrolo[2,3-d]pyrimidin-4-yl)-5,8-diazaspiro[2.6]nonan-8-yl]-2-[4-(trifluoromethyl)phenyl]ethanone]",100 to 1000 nM,< 100 nM,< 100 nM,100 to 1000 nM
"O=C(Cc1ccc(-c2nn[nH]n2)cc1)N1CCN(c2ncnc3[nH]ccc23)CC2(CC2)C1 [Example 77, 1-[5-(7H-pyrrolo[2,3-d]pyrimidin-4-yl)-5,8-diazaspiro[2.6]nonan-8-yl]-2-[4-(2H-tetrazol-5-yl)phenyl]ethanone]",100 to 1000 nM,< 100 nM,< 100 nM,100 to 1000 nM
"Nc1nonc1C(=O)N1CCCN(c2ncnc3[nH]ccc23)CC12CC2 [Example 256, (4-amino-1,2,5-oxadiazol-3-yl)-[5-(7H-pyrrolo[2,3-d]pyrimidin-4-yl)-5,9-diazaspiro[2.6]nonan-9-yl]methanone]",< 100 nM,< 100 nM,< 100 nM,100 to 1000 nM
"NS(=O)(=O)c1ccc(-c2ccc(C(=O)N3CCN(c4ncnc5[nH]ccc45)CC4(CC4)C3)o2)cc1 [Example 65, 4-[5-[5-(7H-pyrrolo[2,3-d]pyrimidin-4-yl)-5,8-diazaspiro[2.6]nonane-8-carbonyl]-2-furyl]benzenesulfonamide]",100 to 1000 nM,< 100 nM,< 100 nM,100 to 1000 nM
O=C(c1ccc(S(=O)(=O)NCC2CCCO2)cc1)N1CCN(c2ncnc3[nH]ccc23)CC2(CC2)C1 (stereo not drawn) [Example 70],100 to 1000 nM,100 to 1000 nM,100 to 1000 nM,> 1000 nM
"CC(=O)N1CCC(C(=O)N2CCN(c3ncnc4[nH]ccc34)CC3(CC3)C2)CC1 [Example 6, 1-{4-[8-(7H-pyrrolo[2,3-d]pyrimidin-4-yl)-5,8-diazaspiro[2.6]nonane-5-carbonyl]piperidin-1-yl}ethanone]",> 1000 nM,100 to 1000 nM,100 to 1000 nM,> 1000 nM
